Measurements published in patent publication US20210038547A1, “NEW USES AND APPLICATIONS OF DICARBOXYLIC ACIDS” (JEMYLL LIMITED, priority 2017, published 2021).

Tests used:
[1] = system: Hy-Line Brown laying hens; experiment: Laying hens fed a standard diet or a diet enriched with C12 (10%): egg productivity, egg quality, yolk cholesterol; type: in vivo
From the text: Thirty Hy-Line Brown laying hens, 18 weeks of age, were free range-raised under natural light and dark cycle. The hens were divided into 2 groups and housed in different indoor pens (0.15 m^2/bird) equipped with feeders and drinkers, with access to open air runs (3 m^2/bird).
The diets were based on wheat and soybean meal with added dodecanedioic acid (C12) at 10% in the DAs diet, while they were free of dodecanedioic acid in the control diet. The diets were isocaloric and isonitrogenous containing 17.0% of crude protein (CP) and 2,680 kcal of metabolizable energy/kg of diet, in fact they were designed to meet or exceed the nutrient requirements for laying hens. The experimental diet was fed to the animals for 12 weeks. Feed and water were provided ad libitum throughout the entire trial.
Hens mortality or morbidity were recorded if occurred. Eggs were collected daily and egg production was calculated on per hen and per day basis. Eggs with any adhering manure were classified as dirty, and the percentage was then calculated.
Eggs were analyzed for interior and exterior physical quality, and were also examined for shell quality by specific gravity. Shell thickness (with shell membrane) of the eggs (10% of the daily egg produced) was measured by micrometer. Shell thickness was a mean value of measurements at 3 locations on the eggs (air cell; equator; and, sharp end). The breaking strength of untracked eggs was determined with a testing machine (model 1140, Instron Ltd., Bucks, UK). Egg components (albumen; yolk; and, shell) were measured by weekly breakouts on two eggs per replicate pen and expressed as percentage of egg weight.
Egg yolk color was scored using the 15-point scale (color scale from 15, dark orange to 1, light pale) of the DSM yolk color fan (DSM Nutritional Products Ltd., Basel, Switzerland).
The yolk cholesterol concentrations were determined by sampling weekly egg yolks (1 g) saponified with 20 ml of 33% ethanolic KOH in tightly-capped tubes placed in a 60° C. water bath for 1 hour. The mixture was then cooled in ice water, and 5 ml of distilled water was added. Cholesterol in unsaponifiable fractions was extracted twice with 5 ml of hexane. The resulting aliquot of hexane containing cholesterol was dried under nitrogen, re-dissolved in 5 ml of hexane, and injected into a gas chromatograph (Hewlett Packard, Palo Alto, Calif., Palo Alto, Calif., USA).
5 α-cholestane (Sigma-Aldrich) was used as an internal standard. A split inlet (using a split ratio of 100:1) was used to inject samples into a capillary column (HP-5, Agilent, Steven, Calif., USA; 30 m×0.53 mm×0.5 μm). Temperature conditions were as follows: […] oven temperature of 270° C. isothermal; detector temperature of 300° C.; and, inlet temperature of 210° C. The gas carrier was N2 kept at a constant flow rate of 1.0 ml/min.
Data were analyzed using the statistical package SPSS 13. Comparisons were made by the Mann Whitney U test since data were not normally distributed.

barley = experiment: Hydroponic barley grown with C12 in the water medium: grain composition; conditions: 10 g C12/L of water (10% C12)
Protocol: (§1) Hydroponic barley and oat grass was growth in fodder sprouting chambers at 21.5 to 23.5° C., with humidity of 65±5% and water temperature between 20° and 22° C. Grains were soaked in water until fully saturated, then drained and placed in trays or troughs, to facilitate sprouting, for 5 to 8 days. The grains were kept moist during this period. Grains were initially washed with a sterilizing solution to help minimize the risk of mold. Grass were provided with […] from day 3. C12 (0.1% as acid, 14.9% as potassium salt, 60% as sodium salt, and 25% as calcium salt) was added to the water medium in different concentrations, varying from 0%, to 2.5%, 5%, 10%, 15% and 20%. We measured grain composition at 10 g C12 in 1 L of water.

oat = experiment: Hydroponic oat grown with C12 in the water medium: grain composition; conditions: 10 g C12/L of water (10% C12)
Protocol: as §1

With `O=C(O)CCCCCCCCCCC(=O)O` [C12, dodecanedioic acid] the Yolk color ([1]; 10% C12 enriched diet vs standard diet) was “lighter color of the yolk”, the “Hen mortality or morbidity” value ([1]; 12 weeks of feeding) was “No hen mortality or morbidity was observed” and the “Dirty eggs (%)” value ([1]; diet with 10% C12 for 12 weeks) was 0.38 ± 0.14%. For the same compound, the “Egg mass (g/hen per day)” value ([1]; diet with 10% C12 for 12 weeks) was 54.56 ± 5.66 g/hen per day, the “Egg-laying rate (%)” value ([1]; diet with 10% C12 for 12 weeks) was 90.30 ± 4.99% and the Cholesterol content ([1]; diet with 10% C12 for 12 weeks, egg yolk, gas chromatography, FIG. 3: per 100 g of egg, in mg/100 g egg) was 87.00 ± 14.27. The “Shell thickness (mm × 10^−2)” value ([1]; diet with 10% C12 for 12 weeks, mean of 3 locations, with shell membrane) was 0.38 ± 0.037 mm × 10^−2, the “content of C12 in a yolk” value ([1]; female, Hy-Line Brown, hen (chicken), in vivo, 12 weeks) was “in a yolk ranged between 0.35 and 2.1 mg” and the Ash % (barley) was 3.40 ± 0.48%. The “Crude Fibre %” value (barley) was 4.42 ± 0.38%, the “Crude Protein %” value (barley) was 16.20 ± 0.62% and the “Dry matter (%)” value (barley) was 90.40 ± 1.14%. The Starch % (barley) was 44.40 ± 3.51%, the Ash % (oat) was 4.06 ± 0.59% and the “Crude Fibre %” value (oat) was 23.40 ± 4.04%. The “Crude Protein %” value (oat) was 18.70 ± 2.28%, the “Dry matter (%)” value (oat) was 90.00 ± 5.70% and the Starch % (oat) was 31.80 ± 8.11%.
